From patent US20250114337A1, “METHODS FOR VASCULAR REGENERATION AND WOUND TREATMENT” (THE METHODIST HOSPITAL, priority 2022, published 2025)

Tested on: ischemic hindlimb model
Test: ischemic hindlimb model in fibroblast lineage tracing Fsp1-Cre: R26R-EYFP mice
Format: in vivo, mouse
Conditions: 7 days post-surgery
Experimental: Using established transdifferentiation protocol and metabolomics profiling to assess the global metabolic changes during transdifferentiation. […] To determine the role of this metabolite in transdifferentiation, the effect of Thiamet G was assessed, an inhibitor of OGA, which enhances O-GlcNAcylation. Thiamet G increased transdifferentiation efficiency in vitro. In a fibroblast lineage tracing mice, Fsp1-Cre: R26R-EYFP mice, Thiamet G increased tissue O-glycnacylation, increased capillary density and limb perfusion, and increased the number of fibroblasts transdifferentiating into endothelial cells (i.e. FSP+CD31+ cell) in an ischemic hindlimb model.
Angiogenic transdifferentiation in limb ischemia. A fibroblast lineage tracing mouse model (Fsp1-Cre: R26R-EYFP) was used to detect transdifferentiation in vivo in a murine model of limb ischemia (Meng, S., et al., Circulation, 2020. 142 (17): p. 1647-1662). […] This population is abolished when the mice are treated with anti-inflammatory drugs, such as dexamethasone. Intriguingly, the disappearance of these cells is associated with a reduction in perfusion recovery and worsening clinical scores. Similar results are achieved when inflammatory signaling is impaired, as in Fsp1-Cre: Rela flox/flox mice. In these animals, NFκB signaling is blocked in the Fsp1+fibroblasts, associated with a dramatic reduction in transdifferentiated fibroblasts (i.e. YFP+CD144+ cells), and impaired perfusion (Meng. S., et al., Circulation, 2020. 142 (17): p. 1647-1662). […] Cluster 8 produced angiogenic cytokines, whereas Cluster 5 expressed genes associated with EC identity (i.e CD144). But only Cluster 5 could generate EC-like networks in Matrigel whereas other fibroblasts, including Cluster 8 fibroblasts, formed nodal structures typical of fibroblasts in Matrigel. The data support the idea that transdifferentiation may occur in vivo with tissue ischemia, and is dependent on inflammatory signaling. This model can be used to study the contribution of O-GlcNAcylation in transdifferentiation and limb ischemia recovery in vivo. A similar lineage tracing approach can be used with tamoxifen-inducible Col1A2-Cre/ERT: R26R-tdTomato mouse strain to study the contribution of O-GlcNAcylation in transdifferentiation and limb ischemia recovery in vivo.
To determine if O-GlcNAcylation enhances revascularization through transdifferentiation, fibroblasts lineage tracing Fsp1-Cre: R26R-EYFP mice strain were utilized where it was previously observed the in situ transdifferentiation phenomenon (FIG. 20A). In this model, all the fibroblasts expressing Fsp1 (fibroblast-specific protein1) are marked with YFP. With this model, a significant increase in the FSP-expressing cell progeny in the ischemic limb was identified compared with the sham-operated limb 3 days after the femoral artery ligation was perform (FIG. 20A) and compare the YFP+ cells over the different time points (FIG. 20A). The percentage of the YFP+CD31+CD11b-cell population which is considered the transdifferentiation population was analyzed further. […] To determine the role of the O-GlcNAcylation on the transdifferentiation, the Fsp1-Cre: R26R-EYFP mice that are undergoing vascular recovery with OSMI were treated, and the transdifferentiation population in the limb muscle tissue 7 days post-surgery was analyzed.

## CCOC(=O)CN(Cc1cccs1)C(=O)[C@H](NS(=O)(=O)c1cc2ccc(=O)[nH]c2cc1Cl)c1ccccc1OC [OSMI]
  transdifferentiation population (YFP+CD31+CD11b-) in limb muscle tissue: significantly reduced
